Laboratory results taken from PMC9823006 (Nature Communications, 2023).
Several values for one entry are separate records, joined by “and”; a condition that tells them apart may be missing. Equal entries are not always repeated.

Experiments:
[1] = target: T1, KalbSec14 (Rattus norvegicus, UniProt P97924, N62Y/T46S); assay: Liposome flotation binding assay (Accudenz gradient, Western blot); conditions: for binding of Kal^bSec14 to liposomes containing the lipid: Golgi-mixture liposomes with 8% test lipid, result in words; for Fraction 1 protein content (top fraction, liposome-bound), densitometry, Ave. / Fraction 2 protein content, densitometry, Ave. / Fraction 3 protein content, densitometry, Ave. / Fraction 4 protein content (bottom fraction, unbound), densitometry, Ave.: mean of independent experiments; for Fraction 1 protein content (top fraction, liposome-bound), densitometry: normalized to total protein recovered from each gradient
T1 construct: His6 (TEV-cleavable) (N, cleaved yes); made in house; host or cells: E. coli BL21(DE3)
Method: Unilamellar liposomes formed by mixing synthetic dioleoyl phospholipids and cholesterol in proportions mimicking the membranes of the trans-Golgi network (Golgi-mixture) were incubated with Kal^bSec14. An Accudenz gradient was used to separate liposome-bound proteins, which were recovered from the top of the gradient (fraction 1), from unbound proteins, which remained at the bottom (fraction 4). Protein levels in each fraction were analyzed by Western blotting with an antibody to the Sec14 domain of Kalirin.
(§1) The synthetic and natural lipids used in flotation assays were purchased from Avanti Polar Lipids, Inc. (Supplementary Table 2). All powdered lipids were dissolved in chloroform per the manufacturer’s instructions. Liposomes were prepared as previously described. […] Individual test lipids were dried together with the control lipid mix under a nitrogen stream and lyophilized overnight. Each dried lipid film was reconstituted to a final concentration of 1 mM in HN buffer containing 20 mM HEPES (pH 7.4) and 150 mM NaCl. Each final lipid mixtures consisted of 52% DOPC, 20% DOPE, 5% DOPS, 15% cholesterol and 8% tested lipid; inclusion of a trace amount of fluorescent lipid (Liss Rhod PE) allowed for localization of liposomes following gradient fractionation (see below). Each lipid mixture underwent five freeze-thaw cycles separated by vigorous vortexing each time it was thawed. Using a mini-extruder, unilamellar liposomes were prepared by passing each lipid mixture 21 times through a polycarbonate membrane of 100-nm pore size. Hydrated lipid mixtures were stored at −20 °C for up to 1 month; liposomes were freshly prepared for each experiment.
(§2) Flotation assays were conducted following the protocol previously described. Accudenz (Accurate Chemical and Scientific Corp., Westbury, NY) solutions (80 and 20% weight/vol) were prepared in HN buffer. To remove any particulate material, the protein to be tested was first centrifuged at 436,000 g at 4 °C for 15 min in a TL-100 ultracentrifuge using a Beckman TLA100.2 fixed angle rotor. Freshly prepared unilamellar liposomes (50 μl) were combined with 0.2 μg of the centrifuged protein and incubated at room temperature for 30 min. The entire liposome/protein mixture was then combined with 50 μl of 80% Accudenz at the bottom of an ultracentrifuge tube and carefully mixed to completion by pipetting. The resulting mixture was overlayered with […] of 20% Accudenz and then with 50 μl of HN buffer. Samples were centrifuged at 259,000 g at 4 °C for 30 min in the same ultracentrifuge using a Beckman TLS55 swinging bucket rotor. Gradients were then divided into four 100-μl fractions, which were carefully collected from the bottom of the tube using gel loading micropipette tips. Each fraction was analyzed for liposome and protein content using spectrophotometry (546-nm excitation/571-nm emission) and Western blot, respectively. Only those assays with at least 90% of the Liss Rhod PE marker recovered in the top fraction (fraction 1) were used for Western bloting analysis.
(§3) For Western bloting analysis, equal aliquots of each gradient fraction were denatured in 1× Laemmli sample buffer, fractionated on 15% acrylamide gels, and transferred to PVDF membranes. The protein content was detected using a custom-made rabbit antibody to the Sec14 domain of Kalirin (CT302[69], 1:3000) and an HRP-tagged goat anti-rabbit IgG (H + L) secondary antibody (catalog # 31460, 1:6000; ThermoFisher Scientific). SuperSignal West chemiluminescent substrate (Thermo Scientific) and a Syngene PXi digital imaging system (Synoptics Group) were used to visualize blots, with exposures adjusted to be in the linear range.

[2] = target: T2, Kal^Sec14 (Rattus norvegicus, UniProt P97924, N62Y/T46S); assay: as above; conditions: Suppl. Fig. 9b,c; for Densitometry values for the Western blots, Fraction 1, Ave. / Densitometry values for the Western blots, Fraction 2, Ave. / Densitometry values for the Western blots, Fraction 3, Ave. / Densitometry values for the Western blots, Fraction 4, Ave.: average, biological replication ≥ 3; for Densitometry values for the Western blots, Fraction 1 / Densitometry values for the Western blots, Fraction 2 / Densitometry values for the Western blots, Fraction 3 / Densitometry values for the Western blots, Fraction 4: individual experiments (Exp. 1-4)
T2 construct: 19.4 kDa); His6 (TEV-cleavable) (N, cleaved yes); made in house; host or cells: E. coli BL21(DE3)
Method: as §1, §2
as §3, with “range. After background subtraction, bands were quantified using the GeneSys software provided with the imaging system, and data were represented as a proportion of total protein recovered. Uncropped blots, quantification of each data point and exact P-values are provided in the Source Data file. […]” for “range.”
a. Representative Western blots from flotation assays with Kal Sec14 alone (Control), and Kal Sec14 with the control lipid mix (Lipo) or with the lipid mix containing the indicated additional lipid. After binding and separation of liposome bound Kal Sec14 from unbound Kal Sec14 on Accudenz gradients, the protein content of four gradient fractions was dete rmined by immunoblot; liposomes were recovered from the top fraction (fraction 1). Source data are […]

[3] = target: T1, KalbSec14; assay: Isothermal titration calorimetry (preliminary); type: binding; conditions: preliminary ITC, data not shown
[4] = normalized to total protein recovered, test lipid 8% of liposome lipid
[5] = single experiments, normalized to total protein recovered, test lipid 8% of liposome lipid
[6] = single experiments, test lipid 8% of liposome lipid

CCCCCCCCCCCCCC(=O)OC[C@@H](O)COP(=O)(O)OCC(O)CO (mixture of isomers) [LPG14:0, 1-myristoyl-2-hydroxy-sn-glycero-3-phospho-(1'-rac-glycerol)]
binding of Kal^bSec14 to liposomes containing the lipid [1]: fail to interact
Fraction 1 protein content (top fraction, liposome-bound), densitometry, Ave. [1, 4]: 0.05
Fraction 2 protein content, densitometry, Ave. [1, 4]: 0.00765
Fraction 3 protein content, densitometry, Ave. [1, 4]: 0.0849
Fraction 4 protein content (bottom fraction, unbound), densitometry, Ave. [1, 4]: 0.86
Fraction 2 protein content, densitometry [1, 5]: 0.00729 and 0.00538 and 0.01
Fraction 3 protein content, densitometry [1, 5]: 0.07 and 0.09
Fraction 4 protein content (bottom fraction, unbound), densitometry [1, 5]: 0.89 and 0.86 and 0.83
Densitometry values for the Western blots, Fraction 1, Ave. [2]: 0.05
Densitometry values for the Western blots, Fraction 2, Ave. [2]: 0.0118
Densitometry values for the Western blots, Fraction 3, Ave. [2]: 0.0754
Densitometry values for the Western blots, Fraction 4, Ave. [2]: 0.86
Densitometry values for the Western blots, Fraction 1 [2]: 0.0538 and 0.045 and 0.06
Densitometry values for the Western blots, Fraction 2 [2]: 0.00506 and 0.000399 and 0.03
Densitometry values for the Western blots, Fraction 3 [2]: 0.0633 and 0.055 and 0.11
Densitometry values for the Western blots, Fraction 4 [2]: 0.88 and 0.90 and 0.80

CCCCCCCCCCCCCC(=O)OC[C@H](COP(=O)([O-])OCC[N+](C)(C)C)OC(=O)CCCCCCCCCCCCC [DMPC, 1,2-dimyristoyl-sn-glycero-3-phosphocholine]
binding of Kal^bSec14 to liposomes containing the lipid [1]: precludes binding
Fraction 1 protein content (top fraction, liposome-bound), densitometry, Ave. [1, 4]: 0.0259
Fraction 2 protein content, densitometry, Ave. [1, 4]: 0.0121
Fraction 3 protein content, densitometry, Ave. [1, 4]: 0.11
Fraction 4 protein content (bottom fraction, unbound), densitometry, Ave. [1, 4]: 0.85
Fraction 1 protein content (top fraction, liposome-bound), densitometry [1, 6]: 0.03 and 0.0163 and 0.0322
Fraction 3 protein content, densitometry [1, 5]: 0.10 and 0.15 and 0.0759
Fraction 4 protein content (bottom fraction, unbound), densitometry [1, 5]: 0.86 and 0.83 and 0.87
Densitometry values for the Western blots, Fraction 1, Ave. [2]: 0.03
Densitometry values for the Western blots, Fraction 2, Ave. [2]: 0.01
Densitometry values for the Western blots, Fraction 3, Ave. [2]: 0.11
Densitometry values for the Western blots, Fraction 4, Ave. [2]: 0.85
Densitometry values for the Western blots, Fraction 1 [2]: 0.0333 and 0.0235 and 0.03
Densitometry values for the Western blots, Fraction 2 [2]: 0.00764 and 0.00497 and 0.0174
Densitometry values for the Western blots, Fraction 3 [2]: 0.08 and 0.10 and 0.15
Densitometry values for the Western blots, Fraction 4 [2]: 0.87 and 0.81

CCCCCCCCCCOP(=O)([O-])OCC[N+](C)(C)C [FC10, decylphosphocholine]
ITC signal [3]: no ITC signal was observed

CCCCCCCCCCCCC(=O)OC[C@@H](O)COP(=O)(O)OC1C(O)C(O)C(O)C(O)C1O (some centres unmarked) [LPI13:0, 1-tridecanoyl-2-hydroxy-sn-glycero-3-phospho-(1'-myo-inositol)]
binding of Kal^bSec14 to liposomes containing the lipid [1]: fail to interact
Fraction 1 protein content (top fraction, liposome-bound), densitometry, Ave. [1, 4]: 0.028
Fraction 2 protein content, densitometry, Ave. [1, 4]: 0.00535
Fraction 3 protein content, densitometry, Ave. [1, 4]: 0.18
Fraction 4 protein content (bottom fraction, unbound), densitometry, Ave. [1, 4]: 0.79
Fraction 1 protein content (top fraction, liposome-bound), densitometry [1, 6]: 0.0252 and 0.03
Fraction 4 protein content (bottom fraction, unbound), densitometry [1, 5]: 0.70 and 0.76 and 0.89
Densitometry values for the Western blots, Fraction 1, Ave. [2]: 0.0225
Densitometry values for the Western blots, Fraction 2, Ave. [2]: 0.0117
Densitometry values for the Western blots, Fraction 3, Ave. [2]: 0.17
Densitometry values for the Western blots, Fraction 4, Ave. [2]: 0.80
Densitometry values for the Western blots, Fraction 1 [2]: 0.0325 and 0.0143 and 0.02
Densitometry values for the Western blots, Fraction 2 [2]: 0.00684 and 0.00931 and 0.019
Densitometry values for the Western blots, Fraction 3 [2]: 0.10 and 0.16 and 0.24
Densitometry values for the Western blots, Fraction 4 [2]: 0.86 and 0.82 and 0.72

CCCCCCCCCCCCC(=O)OC[C@@H](O)COP(=O)(O)OC[C@H](N)C(=O)O [LPS13:0, 1-tridecanoyl-sn-glycero-3-phospho-L-serine]
binding of Kal^bSec14 to liposomes containing the lipid [1]: fail to interact
Fraction 1 protein content (top fraction, liposome-bound), densitometry, Ave. [1, 4]: 0.03
Fraction 2 protein content, densitometry, Ave. [1, 4]: 0.0069
Fraction 3 protein content, densitometry, Ave. [1, 4]: 0.09
Fraction 4 protein content (bottom fraction, unbound), densitometry, Ave. [1, 4]: 0.88
Fraction 4 protein content (bottom fraction, unbound), densitometry [1, 5]: 0.88 and 0.93 and 0.85 and 0.84
Densitometry values for the Western blots, Fraction 1, Ave. [2]: 0.05
Densitometry values for the Western blots, Fraction 2, Ave. [2]: 0.00866
Densitometry values for the Western blots, Fraction 3, Ave. [2]: 0.09
Densitometry values for the Western blots, Fraction 4, Ave. [2]: 0.86
Densitometry values for the Western blots, Fraction 1 [2]: 0.07 and 0.05 and 0.025 and 0.0554
Densitometry values for the Western blots, Fraction 2 [2]: 0.00695 and 0.01 and 0.00643 and 0.0108
Densitometry values for the Western blots, Fraction 3 [2]: 0.07 and 0.05 and 0.16
Densitometry values for the Western blots, Fraction 4 [2]: 0.86 and 0.89 and 0.90 and 0.78
